The IC50 is the concentration that inhibits the measured activity by half.

Bounds are passed on as bounds.

The record followed here is US20040106626A1, “6-Membered unsaturated heterocyclic compounds useful for selective inhibition of the coagulation cascade” (Pharmacia Corporation, priority 2001, published 2004).

What all share (type): biochemical
Assay [1] concerns the target T1, Human factor Xa (Homo sapiens, UniProt P00742).
T1 construct: purchased Enzyme Research Laboratories, South Bend Ind
The assay can be described thus: Xa assay (chromogenic substrate S-2765). The settings on record: reported only as less than or greater than 30 uM; read-out: Factor Xa (II) IC50. In short, it runs like this:
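Chromogenic readout: S-2765 hydrolysis (0.15 mM) by 0.3 nM human FXa was monitored at 405 nm after 60 min at room temperature, with a time-zero background read. Buffer: 50 mM Tris-HCl, pH 8.0, 100 mM NaCl, 0.1% BSA. Inhibition is relative to buffer-only controls.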

Assay [2] concerns the target T2, Human thrombin (Homo sapiens, UniProt P00734).
T2 construct: converts prothrombin (II) to thrombin (IIa); purchased Calbiochem, La Jolla, Calif
The assay can be described thus: Thrombin assay (chromogenic substrate). The following applies: reported only as less than or greater than 30 uM; read-out: Thrombin (II) IC50. In short, it runs like this:
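Percent inhibition derived by comparing OD405 nm of compound-treated and control samples. Thrombin cleavage of a p-nitroanilide chromogenic substrate provides the signal.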

Assay [3] deals with T3, recombinant soluble tissue factor and recombinant human factor VIIa (TF-VIIa) (Homo sapiens, UniProt P08709).
T3 construct: conversion of coagulation factor VII to VIIa by factor Xa; purchased American Diagnostica, Greenwich CT; host or cells: soluble TF made in house in E. coli
T3 sequence (P08709 213-466 limits assumed): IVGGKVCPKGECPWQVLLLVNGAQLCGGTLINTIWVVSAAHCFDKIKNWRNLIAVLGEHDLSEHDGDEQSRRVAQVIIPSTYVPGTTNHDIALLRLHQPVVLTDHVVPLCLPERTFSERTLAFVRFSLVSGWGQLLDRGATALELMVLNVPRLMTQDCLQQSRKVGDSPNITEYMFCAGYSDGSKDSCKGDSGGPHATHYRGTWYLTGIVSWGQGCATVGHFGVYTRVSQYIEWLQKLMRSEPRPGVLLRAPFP
T3 sequence (P08709 61-212 limits assumed): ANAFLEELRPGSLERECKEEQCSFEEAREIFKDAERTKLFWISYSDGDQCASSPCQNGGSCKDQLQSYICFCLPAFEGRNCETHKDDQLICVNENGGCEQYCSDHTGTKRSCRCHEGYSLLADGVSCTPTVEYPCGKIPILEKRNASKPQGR
T3 sequence (P13726 33-251 partner limits assumed): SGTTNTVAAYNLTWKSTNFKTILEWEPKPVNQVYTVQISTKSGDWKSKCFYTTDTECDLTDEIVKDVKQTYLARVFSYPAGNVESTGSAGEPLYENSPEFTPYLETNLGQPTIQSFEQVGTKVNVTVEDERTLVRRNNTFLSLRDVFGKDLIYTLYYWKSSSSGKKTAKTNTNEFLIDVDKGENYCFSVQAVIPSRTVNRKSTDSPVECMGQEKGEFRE
As to the kind of experiment: TF-VIIa assay (chromogenic substrate hydrolysis). The following applies: reported only as less than or greater than 0.1 uM. Summed up:
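Chromogenic read at OD405, compared with control for percent inhibition. Substrate N-methylsulfonyl-D-phe-gly-arg-p-nitroaniline at 0.4 mM is cleaved by recombinant human VIIa (2 nM) complexed with soluble TF (100 nM). Buffer: pH 8.0 Tris-HCl 50 mM, CaCl2 5 mM, NaCl 100 mM, BSA 0.1%.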

In assay [4] the test system is Normal human pooled plasma. The assay can be described thus: Prothrombin time (PT) clotting assay. The following applies: concentration at which prothrombin time is prolonged by 2x normal, reported as less than or greater than 50 uM. Summed up: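 Normal human pooled plasma incubated with 100 uM compound or saline, then thromboplastin (human tissue factor) added and clotting time recorded in a coagulation machine. Compounds exceeding 3× normal PT (11.0 s) are titrated to find the concentration doubling PT.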

T1 sequence (P00742 235-488 limits assumed): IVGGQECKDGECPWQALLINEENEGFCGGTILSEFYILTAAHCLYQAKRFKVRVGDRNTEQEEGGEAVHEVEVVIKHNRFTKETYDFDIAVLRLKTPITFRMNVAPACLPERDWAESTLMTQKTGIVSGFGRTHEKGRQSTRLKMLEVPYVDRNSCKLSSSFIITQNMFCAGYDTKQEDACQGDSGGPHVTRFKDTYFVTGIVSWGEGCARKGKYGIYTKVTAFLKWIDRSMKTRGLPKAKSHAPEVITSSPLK
T1 sequence (P00742 41-179 limits assumed): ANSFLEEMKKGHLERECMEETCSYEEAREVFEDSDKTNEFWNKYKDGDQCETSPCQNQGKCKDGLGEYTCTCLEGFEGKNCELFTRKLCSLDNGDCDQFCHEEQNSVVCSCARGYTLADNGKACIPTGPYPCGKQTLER

`CCCC(=O)Nc1cc(N)cc(-c2cnc(NC(C)C)c(=O)n2CC(=O)NCc2ccc(C(=N)N)cc2)c1.O=C(O)C(F)(F)F.O=C(O)C(F)(F)F` [Example 130]: the values for the IC50 in assay [1], in assay [2] and in assay [3] were more than 30 µM, less than 30 µM and less than 0.1 µM, respectively. Besides, the “PT (Prothrombin time) 2xPT” value in assay [4] was less than 50.0 µM.

`CC(C)Nc1ncc(-c2cc(N)cc(C(=O)OC(C)C)c2)n(CC(=O)NCc2ccc(C(=N)N)cc2)c1=O.O=C(O)C(F)(F)F` [Example 124, Isopropyl 3-amino-5-[1-[2-({4-[amino(imino)methyl]benzyl}amino)-2-oxoethyl]-5-(isopropylamino)-6-oxo-1,6-dihydropyrazin-2-yl]benzoate]: the values for the IC50 in assay [1], in assay [2] and in assay [3] were more than 30 µM, more than 30 µM and less than 0.1 µM, respectively. Moreover, in assay [4], the “PT (Prothrombin time) 2xPT” value is less than 50.0 µM.

Turning to `CCCNc1ncc(-c2cc(N)cc(C(=O)N[C@@H](C)CC)c2)n(CC(=O)NCc2ccc(C(=N)N)cc2)c1=O.O=C(O)C(F)(F)F.O=C(O)C(F)(F)F` [Example 192], the IC50 in assay [1] is more than 30 µM; in assay [2], less than 30 µM; in assay [3], less than 0.1 µM. Besides, in assay [4], the “PT (Prothrombin time) 2xPT” value was less than 50.0 µM.

In the case of `CC(C)Nc1ncc(-c2cc(N)cc(NC(=O)NCc3ccccc3)c2)n(CC(=O)NCc2ccc(C(=N)N)cc2)c1=O` [Example 114], the half-inhibitory concentration (IC50) was more than 30 µM in assay [1], more than 30 µM in assay [2] and less than 0.1 µM in assay [3]. In addition, in assay [4], the “PT (Prothrombin time) 2xPT” value was less than 50.0 µM.

Turning to `CC(C)Nc1ncc(-c2cc(N)cc(OCC3CCCC3)c2)n(CC(=O)NCc2ccc(C(=N)N)cc2)c1=O.O=C(O)C(F)(F)F.O=C(O)C(F)(F)F` [Example 220], the IC50 in assay [1] was more than 30 µM; in assay [2], more than 30 µM; in assay [3], less than 0.1 µM. In addition, the “PT (Prothrombin time) 2xPT” value in assay [4] is less than 50.0 µM.

With `CC(C)Nc1ncc(-c2cc(N)cc(OC3CCCC3)c2)n(CC(=O)NCc2ccc(C(=N)N)cc2)c1=O.O=C(O)C(F)(F)F.O=C(O)C(F)(F)F` [Example 212], the values for the IC50 in assay [1], in assay [2] and in assay [3] were more than 30 µM, more than 30 µM and less than 0.1 µM, respectively. The “PT (Prothrombin time) 2xPT” value in assay [4] is less than 50.0 µM.

Take `CC(C)Nc1ncc(-c2cc(N)cc(CCCc3ccccc3)c2)n(CC(=O)NCc2ccc(C(=N)N)cc2)c1=O` [Example 76, N-{4-[amino(imino)methyl]benzyl}-2-[6-[3-amino-5-(3-phenylpropyl)phenyl]-3-(isopropylamino)-2-oxopyrazin-1 (2H)-yl]acetamide]: the IC50 in assay [1] was more than 30 µM; in assay [2], more than 30 µM; in assay [3], less than 0.1 µM. In addition, in assay [4], the “PT (Prothrombin time) 2xPT” value is less than 50.0 µM.

For `CCC(CC)COc1cc(N)cc(-c2cnc(NC(C)C)c(=O)n2CC(=O)NCc2ccc(C(=N)N)cc2)c1.O=C(O)C(F)(F)F.O=C(O)C(F)(F)F` [Example 209], the IC50 in assay [1] was more than 30 µM; in assay [2], more than 30 µM; in assay [3], less than 0.1 µM. The “PT (Prothrombin time) 2xPT” value in assay [4] is 50 µM.

`CC[C@H](C)NC(=O)c1cc(N)cc(-c2cnc(N[C@@H](C)C(C)C)c(=O)n2CC(=O)NCc2ccc(C(=N)N)cc2)c1.O=C(O)C(F)(F)F.O=C(O)C(F)(F)F` [Example 190]: the IC50 in assay [1] was more than 30 µM; in assay [2], less than 30 µM; in assay [3], less than 0.1 µM. Moreover, the “PT (Prothrombin time) 2xPT” value in assay [4] was less than 50.0 µM.

Turning to `CC(C)Nc1ncc(-c2cc(N)cc(O)c2)n(CC(=O)NCc2ccc(C(=N)N)cc2)c1=O` [Example 54], the IC50 in assay [1] is more than 30 µM; in assay [2], more than 30 µM; in assay [3], less than 0.1 µM. Also, in assay [4], the “PT (Prothrombin time) 2xPT” value was less than 50.0 µM.

On to `CC(C)Nc1ncc(-c2cc(N)cc(NS(=O)(=O)c3ccccc3)c2)n(CC(=O)NCc2ccc(C(=N)N)cc2)c1=O` [Example 96], for which the IC50 in assay [1] is more than 30 µM; in assay [2] it was more than 30 µM; in assay [3], less than 0.1 µM. Further, the “PT (Prothrombin time) 2xPT” value in assay [4] is less than 50.0 µM.

On to `CC(C)Nc1ncc(-c2cc(N)cc(OC(C)C)c2)n(CC(=O)NCc2ccc(C(=N)N)cc2)c1=O.O=C(O)C(F)(F)F.O=C(O)C(F)(F)F` [Example 216], for which the IC50 in assay [1] is more than 30 µM; in assay [2], more than 30 µM; in assay [3] it was less than 0.1 µM. In assay [4], the “PT (Prothrombin time) 2xPT” value was less than 50.0 µM.

Regarding `COc1cc(N)cc(-c2cnc(NC(C)C)c(=O)n2CC(=O)NCc2ccc(C(=N)N)cc2)c1` [Example 53, N-{4-[Amino(imino)methyl]benzyl}-2-[6-(3-amino-5-methoxyphenyl)-3-(isopropylamino)-2-oxopyrazin-1 (2H)-yl]acetamide], the IC50 was more than 30 µM in assay [1], more than 30 µM in assay [2] and less than 0.1 µM in assay [3]. Also, the “PT (Prothrombin time) 2xPT” value in assay [4] is less than 50.0 µM.

On to `CC[C@@H](C)Nc1ncc(-c2cc(N)cc(C(=O)N[C@@H](C)CC)c2)n(CC(=O)NCc2ccc(C(=N)N)cc2)c1=O.O=C(O)C(F)(F)F.O=C(O)C(F)(F)F` [Example 203], for which the values for the half-inhibitory concentration (IC50) in assay [1], in assay [2] and in assay [3] were more than 30 µM, less than 30 µM and less than 0.1 µM, respectively. In addition, the “PT (Prothrombin time) 2xPT” value in assay [4] is less than 50.0 µM.

Take `CC(C)Nc1ncc(-c2cc(N)cc(/C=C/Cc3ccccc3)c2)n(CC(=O)NCc2ccc(C(=N)N)cc2)c1=O` [Example 80, N-{4-[amino(imino)methyl]benzyl}-2-[6-{3-amino-5-[(1E)-3-phenylprop-1-enyl]phenyl}-3-(isopropylamino)-2-oxopyrazin-1 (2H)-yl]acetamide]: the IC50 is more than 30 µM in assay [1], more than 30 µM in assay [2] and less than 0.1 µM in assay [3]. Moreover, in assay [4], the “PT (Prothrombin time) 2xPT” value is more than 50.0 µM.

Turning to `CC(C)Nc1ncc(-c2cc(N)cc(NC(=O)C3CCCC3)c2)n(CC(=O)NCc2ccc(C(=N)N)cc2)c1=O` [Example 100], the IC50 in assay [1] was more than 30 µM; in assay [2], less than 30 µM; in assay [3] it was less than 0.1 µM. For the same compound, the “PT (Prothrombin time) 2xPT” value in assay [4] is less than 50.0 µM.

For the compound `COc1cccc(CNC(=O)c2cc(N)cc(-c3cnc(NC(C)C)c(=O)n3CC(=O)NCc3ccc(C(=N)N)cc3)c2)c1.O=C(O)C(F)(F)F` [Example 177], the IC50 in assay [1] was more than 30 µM; in assay [2], more than 30 µM; in assay [3], less than 0.1 µM. In assay [4], the “PT (Prothrombin time) 2xPT” value is less than 50.0 µM.

Take `CC(C)CSc1cc(N)cc(-c2cnc(NC(C)C)c(=O)n2CC(=O)NCc2ccc(C(=N)N)cc2)c1` [Example 70, N-{4-[amino(imino)methyl]benzyl}-2-[6-[3-amino-5-(isobutylthio)phenyl]-3-(isopropylamino)-2-oxopyrazin-1 (2H)-yl]acetamide]: the results for the IC50 in assay [1], in assay [2] and in assay [3] were more than 30 µM, more than 30 µM and less than 0.1 µM, respectively. Also, in assay [4], the “PT (Prothrombin time) 2xPT” value is less than 50.0 µM.

With `CC(C)Nc1ncc(-c2cc(N)cc(OCC(C)(C)N(C)C)c2)n(CC(=O)NCc2ccc(C(=N)N)cc2)c1=O.O=C(O)C(F)(F)F.O=C(O)C(F)(F)F` [Example 213], the IC50 is more than 30 µM in assay [1], more than 30 µM in assay [2] and less than 0.1 µM in assay [3]. The “PT (Prothrombin time) 2xPT” value in assay [4] is less than 50.0 µM.

Take `CC(C)Nc1ncc(-c2cc(N)cc(C(=O)N[C@H](C)C3CCCCC3)c2)n(CC(=O)NCc2ccc(C(=N)N)cc2)c1=O.O=C(O)C(F)(F)F` [Example 81]: the IC50 in assay [1] is more than 30 µM; in assay [2], less than 30 µM; in assay [3] it was less than 0.1 µM. Further, in assay [4], the “PT (Prothrombin time) 2xPT” value was less than 50.0 µM.

On to `CC(C)Nc1ncc(-c2cc(N)cc(C(=O)N(C)Cc3ccccc3)c2)n(CC(=O)NCc2ccc(C(=N)N)cc2)c1=O.O=C(O)C(F)(F)F.O=C(O)C(F)(F)F` [Example 28], for which the values for the IC50 in assay [1], in assay [2] and in assay [3] were more than 30 µM, more than 30 µM and less than 0.1 µM, respectively. Also, the “PT (Prothrombin time) 2xPT” value in assay [4] was less than 50.0 µM.

In the case of `CC(C)Nc1ncc(-c2cc(N)cc(NS(=O)(=O)c3ccc(F)cc3F)c2)n(CC(=O)NCc2ccc(C(=N)N)cc2)c1=O` [Example 94], the IC50 in assay [1] was more than 30 µM; in assay [2], more than 30 µM; in assay [3], less than 0.1 µM. In assay [4], the “PT (Prothrombin time) 2xPT” value is less than 50.0 µM.

Regarding `CC(C)Nc1ncc(-c2cc(N)cc(OC3Cc4ccccc4C3)c2)n(CC(=O)NCc2ccc(C(=N)N)cc2)c1=O.O=C(O)C(F)(F)F.O=C(O)C(F)(F)F` [Example 218], the IC50 in assay [1] was more than 30 µM; in assay [2] it was more than 30 µM; in assay [3], less than 0.1 µM. Further, in assay [4], the “PT (Prothrombin time) 2xPT” value was less than 50.0 µM.

Regarding `CC(C)Nc1ncc(-c2cc(N)cc(NC(=O)Nc3ccccc3)c2)n(CC(=O)NCc2ccc(C(=N)N)cc2)c1=O` [Example 113], the IC50 in assay [1] is more than 30 µM; in assay [2] it was more than 30 µM; in assay [3], less than 0.1 µM. Besides, the “PT (Prothrombin time) 2xPT” value in assay [4] was less than 50.0 µM.

Consider `CC(C)Nc1ncc(-c2cc(N)cc(C(=O)NCCC(=O)O)c2)n(CC(=O)NCc2ccc(C(=N)N)cc2)c1=O.O=C(O)C(F)(F)F.O=C(O)C(F)(F)F` [Example 172], for which the figures for the IC50 in assay [1], in assay [2] and in assay [3] were more than 30 µM, more than 30 µM and less than 0.1 µM, respectively. Further, the “PT (Prothrombin time) 2xPT” value in assay [4] was less than 50.0 µM.
